Source: patent publication US8343934B2, “Diverse lead compound autotaxin inhibitors” (University of Memphis, priority 2009, dated 2013)

Target: T1, ATX (Homo sapiens, UniProt Q13822)
T1 construct: conditioned serum-free medium (CCM) from MDA-MB-435 cells as the source of ATX; endogenous in cells; host or cells: MDA-MB-435 cells (about 10x concentrated conditioned serum-free medium)
Experiment: ATX inhibition assay (FS-3 substrate)
Type: biochemical
Details: for IC50 / % ATX Acitivity (10 μM): FS-3 substrate; for % Response: preliminary screen, FS-3 hydrolysis at one hour, normalized to vehicle control, mean±S.D., same values given at 10 μM in Table 5; for % ATX Acitivity (10 μM): 10 μM compound
Protocol: ATX inhibition was assayed using the substrate FS-3 (Echelon Biosciences, Inc., Salt Lake City, Utah, USA). The FS-3 assay used ˜10 times concentrated conditioned serum-free medium (CCM) from MDA-MB-435 cells as the source of ATX, while CCM comprised one-third of the total volume. The final volume for FS-3 was comprised of the substrate at varying concentrations and 30 μM charcoal-stripped fatty acid free BSA (Sigma Aldrich) in assay buffer (1 mM each CaCl2 and MgCl2, 5 mM KCl, 140 mM NaCl, 50 mM Tris pH 8.0).
All assays were performed in 96-well plates with data read at 1 minute intervals by a Synergy2 system (BioTek, Winooski, Vt.). The fluorescence produced upon the hydrolysis of FS-3 was monitored using an excitation wavelength of 485 nm and an emission wavelength of 528 nm at 37° C. (Ferguson et al., 2006). […] All readings were normalized to vehicle control after subtraction of fluorescence in the absence of CCM. Data are shown as the mean±S.D. of at least three wells.

[1] = Calculated IC50 data for the 30 active compounds

| IC50 [1] [µM] | % Response [%] | Compound | further results |
| --- | --- | --- | --- |
| 18.2 | 41 ± 4.3 | COc1ccccc1N=Nc1c(S(=O)(=O)[O-])cc2cc(NC(=O)Nc3ccc4c(O)c(N=Nc5ccc(S(=O)(=O)[O-])cc5C)c(S(=O)(=O)[O-])cc4c3)ccc2c1O.[Na+].[Na+].[Na+] [compound 47764] | – |
| 11.5 | 35 ± 2.9 | Nc1ccc2cc(S(=O)(=O)[O-])c(N=Nc3ccc(-c4ccc(N=Nc5c(S(=O)(=O)[O-])cc6cc(S(=O)(=O)[O-])c(N=Nc7cccc([N+](=O)[O-])c7)c(N)c6c5O)cc4)cc3)c(O)c2c1.[Na+].[Na+].[Na+] [compound 79744] | – |
| – | 55 ± 5.5 | Nc1c(N=Nc2ccc([N+](=O)[O-])cc2)c(S(=O)(=O)[O-])cc2cc(S(=O)(=O)[O-])c(N=Nc3ccc(-c4ccc(N=Nc5ccc(O)c(C(=O)[O-])c5)cc4)cc3)c(O)c12.[Na+].[Na+].[Na+] [compound 8681] | – |
| – | – | O=C1C(Cl)=C(Nc2ccc(C(=O)Nc3ccc4cc(S(=O)(=O)O)cc(S(=O)(=O)O)c4c3)cc2)C(=O)C(Cl)=C1Nc1ccc(C(=O)Nc2ccc3cc(S(=O)(=O)O)cc(S(=O)(=O)O)c3c2)cc1 [NSC 12859] | % ATX Acitivity (10 μM): 27 ± 2.8%; IC50 (Table 5): 0.805 µM |
| – | 52 ± 7.7 | CCOc1ccc(N=c2ccc3c(-c4c(Cl)ccc(Cl)c4C(=O)O)c4ccc(Nc5ccc(OCC)cc5S(=O)(=O)O)cc4oc-3c2)cc1.[Na+] [compound 8682] | – |
| 17.4 | 43 ± 3.8 | Nc1ccc2cc(S(=O)(=O)O)cc(O)c2c1N=Nc1ccc(-c2ccc(N=Nc3c(S(=O)(=O)O)cc4cc(S(=O)(=O)O)c(N=Nc5ccc([N+](=O)[O-])cc5)c(N)c4c3O)cc2)cc1 [compound 65855] | – |
| – | – | Nc1ccc(/N=N/c2ccc(-c3ccc(/N=N/c4c(S(=O)(=O)O)cc5cc(S(=O)(=O)O)c(/N=N/c6ccc([N+](=O)[O-])cc6)c(N)c5c4O)cc3)cc2)c2ccc(S(=O)(=O)O)cc12 [NSC 77520] | % ATX Acitivity (10 μM): 32 ± 2.7%; IC50: 4.07 µM |
| 12.6 | 49 ± 6.1 | Nc1c(S(=O)(=O)[O-])cc2cc(S(=O)(=O)[O-])ccc2c1N=Nc1ccc(-c2ccc(N=Nc3c(N)c(S(=O)(=O)[O-])cc4cc(S(=O)(=O)[O-])ccc34)c(S(=O)(=O)[O-])c2)cc1.[Na+].[Na+].[Na+].[Na+].[Na+] [compound 11243] | – |
| – | 98 ± 7.4 | COc1ccc(C(=O)Nc2ccc(/C=C/c3ccc(NC(=O)c4ccc(OC)cc4)cc3S(=O)(=O)O)c(S(=O)(=O)O)c2)cc1.[Na+] [compound 12858] | – |
| – | 71 ± 4.0 | COc1ccccc1N=Nc1c(S(=O)(=O)O)cc2cc(S(=O)(=O)O)c(N=Nc3ccc([N+](=O)[O-])cc3)c(N)c2c1O.[Na+] [compound 65829] | – |
| 6.36 | 37 ± 2.6 | Nc1ccc(N=Nc2ccc(-c3ccc(N=Nc4c(S(=O)(=O)O)cc5cc(S(=O)(=O)O)c(N=Nc6cccc([N+](=O)[O-])c6)c(N)c5c4O)cc3)cc2)c(N)c1.[Na+] [compound 79593] | – |
| – | 67 ± 4.0 | Nc1cccc(N=Nc2c(S(=O)(=O)[O-])cc3cc(Nc4ccc5c(O)c(N=Nc6cccc(N)c6)c(S(=O)(=O)[O-])cc5c4)ccc3c2O)c1.[Na+].[Na+] [compound 51533] | – |
| 8.33 | 39 ± 2.7 | Nc1ccc(N=Nc2ccc(-c3ccc(N=Nc4c(S(=O)(=O)[O-])cc5cc(S(=O)(=O)[O-])c(N=Nc6ccc([N+](=O)[O-])cc6)c(N)c5c4O)cc3)cc2)c2cc(S(=O)(=O)[O-])ccc12.[Na+].[Na+].[Na+] [compound 79743] | – |
| – | 100 ± 7.3 | O=C(Nc1ccc2cc(S(=O)(=O)O)cc(S(=O)(=O)O)c2c1)Nc1ccc2cc(S(=O)(=O)O)cc(S(=O)(=O)O)c2c1.[Na+] [compound 12857] | – |
| – | 61 ± 4.3 | CCOc1cc(-c2ccc(N=Nc3c(S(=O)(=O)O)cc4ccc(N)cc4c3O)cc2)ccc1N=Nc1c(S(=O)(=O)O)cc2ccc(N)cc2c1O.[Na+] [compound 44654] | – |
| 11.6 | 16 ± 3.1 | COc1ccccc1N=Nc1c(S(=O)(=O)O)cc2cc(NC(=O)Nc3ccc4c(O)c(N=Nc5c(N)ccc6cc(S(=O)(=O)O)ccc56)c(S(=O)(=O)O)cc4c3)ccc2c1O [compound 45622] | – |

| IC50 [1] [µM] | % Response [%] | Compound | further results |
| --- | --- | --- | --- |
| – | 98 ± 3.7 | O=S(=O)(c1ccc(NC(C(O)C(O)C(O)C(O)CO)S(=O)(=O)O)cc1)c1ccc(NC(C(O)C(O)C(O)C(O)CO)S(=O)(=O)O)cc1 (stereo not drawn) [compound 36701] | – |
| – | 83 ± 5.5 | CC(=O)Nc1ccc(N=Nc2c(S(=O)(=O)O)cc3cc(NC(=O)Nc4ccc5c(O)c(N=Nc6ccccc6)c(S(=O)(=O)O)cc5c4)ccc3c2O)cc1.[Na+] [compound 47762] | – |
| – | 78 ± 7.0 | Nc1ccc2cc(S(=O)(=O)O)cc(O)c2c1N=Nc1ccc(NC(=O)Nc2ccc(N=Nc3c(N)ccc4cc(S(=O)(=O)O)cc(O)c34)c(S(=O)(=O)O)c2)cc1S(=O)(=O)O [compound 11244] | – |
| 7.04 | 36 ± 2.5 | Nc1ccc(N=Nc2ccc(-c3ccc(N=Nc4c(S(=O)(=O)[O-])cc5cc(S(=O)(=O)[O-])c(N=Nc6cccc([N+](=O)[O-])c6)c(N)c5c4O)cc3)cc2)c2cc(S(=O)(=O)[O-])ccc12.[Na+].[Na+].[Na+] [compound 79742] | – |
| – | 89 ± 3.9 | Nc1cccc(N=Nc2c(S(=O)(=O)[O-])cc3cc(Nc4ccc5c(O)c(N=Nc6cccc(N)c6)c(S(=O)(=O)[O-])cc5c4)ccc3c2O)c1.[Na+].[Na+] [compound 58055] | – |
| – | 68 ± 5.8 | Nc1cccc(N=Nc2c(S(=O)(=O)[O-])cc3cc(NC(=O)Nc4ccc5c(O)c(N=Nc6cccc(N)c6)c(S(=O)(=O)[O-])cc5c4)ccc3c2O)c1.[Na+].[Na+] [compound 47750] | – |
| – | 89 ± 5.1 | O=S(=O)(O)c1cc(O)c2ccc(Nc3ccc4c(O)cc(S(=O)(=O)O)cc4c3)cc2c1 [compound 1698] | – |
| – | 73 ± 3.7 | O=C(O)c1ccccc1-c1c2ccc(=Nc3ccccc3)cc-2oc2cc(Nc3ccc(S(=O)(=O)O)cc3)ccc12.[Na+] [compound 11242] | – |
| – | 57 ± 6.5 | O=C(Nc1ccc(S(=O)(=O)c2ccc(NC(=O)Nc3ccc4cc(S(=O)(=O)O)ccc4c3)cc2)cc1)Nc1ccc2cc(S(=O)(=O)O)ccc2c1.[Na+] [compound 12149] | – |
| – | 92 ± 9.1 | O=S(=O)(O)c1cc(O)c2ccc(Nc3ccc4c(O)cc(S(=O)(=O)O)cc4c3)cc2c1 [compound 37203] | – |
| – | 95 ± 4.3 | O=C(COc1ccc(Cl)cc1C(=O)O)NCc1cccc(NC(=O)Nc2ccc(S(=O)(=O)F)cc2)c1 [compound 212086] | – |
| 15.5 | 35 ± 5.8 | Cc1ccc(C)c(N=Nc2c(S(=O)(=O)O)cc3cc(NC(=O)Nc4ccc5c(O)c(N=Nc6ccc7cc(S(=O)(=O)O)ccc7c6)c(S(=O)(=O)O)cc5c4)ccc3c2O)c1.[Na+] [compound 65576] | – |
| 1.26 | 20 ± 5.7 | Nc1ccc2cc(S(=O)(=O)[O-])c(N=Nc3ccc(-c4ccc(N=Nc5c(S(=O)(=O)[O-])cc6cc(S(=O)(=O)[O-])cc(N)c6c5O)cc4)cc3)c(O)c2c1.[Na+].[Na+].[Na+] [compound 75779] | – |
| – | 99 ± 3.1 | O=C(CC(C(=O)O)S(=O)(=O)O)Nc1ccc(S(=O)(=O)c2ccc(NC(=O)CC(C(=O)O)S(=O)(=O)O)cc2)cc1.[Na+] (stereo not drawn) [compound 2460] | – |
| – | 71 ± 4.6 | Cc1ccccc1N=Nc1ccc(N=Nc2c(S(=O)(=O)O)cc3cc(S(=O)(=O)O)c(N=Nc4ccc([N+](=O)[O-])cc4)c(N)c3c2O)c(C)c1.[Na+] [compound 65836] | – |
| – | 93 ± 4.6 | Nc1ccc(S(=O)(=O)c2ccc(NCNC(CSSCC(NCNc3ccc(S(=O)(=O)c4ccc(N)cc4)cc3)C(=O)O)C(=O)O)cc2)cc1 (stereo not drawn) [compound 39858] | – |

| Compound | IC50 [1] [µM] | % Response [%] | further results |
| --- | --- | --- | --- |
| O=C(Nc1cc[c]([Sb](=[O])([OH])[OH])cc1)Nc1cc[c]([Sb](=[O])([OH])[OH])cc1 [compound 15408] | – | 100 ± 7.9 | – |
